The subject of test [1] is T lymphocytes isolated from spleens of male CBA/J or NZB mice. The test can be described thus: T lymphocyte proliferation, 3H-thymidine incorporation. The class given is cell-based. Also noted: key: A = Active; IA = Inactive. As to conditions: 48 hours culture, 200 μl. On the procedure:
The activity of the compounds of Example 2 and Example 4 was determined according to the following procedure:
T lymphocytes are isolated from spleens of male CBA/J or NZB mice. Cell homogenates are prepared in Hank's balanced salt solution (HBSS). After removal of larger particles and repeated washing of the cells in HBSS they are suspended in minimum essential medium (MEM) and passed through a glass wool column to remove macrophages. The cells are then incubated on a nylon wool column at 37° C., 95% air, 5% CO2, for 45 minutes. The non-adherant T lymphocytes are then eluted from the column, counted, and adjusted to 20×10^6 cells/ml. 50 μl of cells are cultured (37° C., 95% air, 5% CO2) with compound, for 48 hours before the addition of 0.5 μCi. of 3H-thymidine for the last 16 hours of culture. The total volume of the culture system is 200 μl. The cells are then harvested on a multiple automatic sample harvester (Mash II), the glass fiber filter disks placed in 10 ml. of xylene base scintillation fluid, and counted for 1 minute in a liquid scintillation counter. Results are reported as CPM±SE. Comparisons are made between counts obtained with control cultures and cultures containing compound and a determination made as to whether the compounds are active at the dosage tested.

Test [2] relates to autologous rosette-forming cells in the spleens of athymic mice. To be noted: in vivo; cited from earlier work.

Where a SMILES comes first, the peptide text is derived from it. Where no end group is shown, it is not given here. [ ]: non-standard residue; d: D form.

In the case of `CC(=O)O.CC(=O)O.CC(=O)O.CC(C)[C@H](NC(=O)[C@H](CC(N)=O)NC(=O)[C@H](CCCCN)NC(=O)[C@@H](N)CCCNC(=N)N)C(=O)N[C@@H](Cc1ccc(O)cc1)C(N)=O` [Arg--Lys--Asn--Val--Tyr--NH2, L-Arginyl-L-lysyl-L-asparaginyl-L-valyl-L-tyrosyl-amide triacetate salt] (H-RKNVY-NH2), the “Activity (T-cell proliferation, 3H-thymidine CPM vs control cultures)” value in test [1] (0.0015 μg/culture) was “A”; in test [1] (0.006 μg/culture), “A”; in test [1] (0.025 μg/culture) it was “A”; in test [1] (0.05 μg/culture), “A”; in test [1] (0.1 μg/culture) it was “A”; in test [1] (0.2 μg/culture), “IA”.

On to `CC(=O)O.CC(=O)O.CC(=O)O.CC(C)[C@H](NC(=O)[C@H](CC(N)=O)NC(=O)[C@H](CCCCN)NC(=O)[C@H](N)CCCNC(=N)N)C(=O)N[C@H](Cc1ccccc1)C(N)=O` [D-Arg--Lys--Asn--Val--D-Phe--NH2, D-Arginyl-L-lysyl-L-asparaginyl-L-valyl-D-phenylalanyl amide tri acetate salt] (H-[dR]KNV[dF]-NH2), for which the “Activity (T-cell proliferation, 3H-thymidine CPM vs control cultures)” value in test [1] (0.0015 μg/culture), in test [1] (0.006 μg/culture), in test [1] (0.025 μg/culture) and in test [1] (0.1 μg/culture) was “A” each time.

With “RKDVY [arginyl-lysyl-aspartyl-valyl-tyrosine]”, the “Numbers of autologous rosette-forming cells in spleens of athymic mice” value in test [2] is “reducing the high numbers of autologous rosette-forming cells”.

Values taken from patent US4309340A, “Polypeptide compositions” (American Home Products Corporation, priority 1980, dated 1982).
